From patent US20100184678A1, “USE OF A PEPTIDE AS A THERAPEUTIC AGENT” (priority 2007, published 2010) come the findings set out here.

Where no end group is shown, it is not given here.

The test system of one test is HCMV strain AD169. As to the kind of experiment: HCMV plaque formation assay in MRC-5 cells. The format is cell-based. To be noted: for inhibition of HCMV plaque formation as compared to the virus control experiment: 10 micrograms per ml, MRC-5 cells, 7-10 days. The text has this: Ganciclovir was used as positive control.
Test [1] has as its system A549 cells. As to the kind of experiment: Apoptosis induction assay (Annexin-5). The format is cell-based, human. The conditions noted are these: 10 micrograms per ml; 24 hours.
Method: Human A549 cells (carcinomic human alveolar basal epithelial cells) were utilized in the experiments employing the Annexin-5 apoptosis assay. […] Test peptides—10 micrograms per ml—were exposed for 24 hours to the A549 cells before they were analyzed for signs of apoptosis.
The next test deals with murine spleen cells. As to the kind of experiment: Th1/Th2 cytokine profiling assay (Ovalbumin-restimulated spleen cells). The format is cell-based, Balb/c mice. To be noted: 10 micrograms per ml, 72 hours; for production of IFN-gamma (decreased by %) / production of IL-4 (decreased by %) / production of IL-5 (decreased by %): number = decrease; for production of TNF-alpha (induced by %): number = increase.

Test [2] concerns hepatitis B virus (HBV) ayw strain. As to the kind of experiment: HBV assay in HepG2-2.2.15 cells (secreted HBV DNA, TaqMan PCR). The class given is cell-based. To be noted: 10 micrograms per ml, HepG2-2.2.15, six days. On the technique in general: Real-time PCR tracks product formation cycle by cycle.
In test [3] the test system is Primary Human endothelial cells (HUVEC). Briefly: Endothelial cell migration assay. The class given is cell-based. The conditions noted are these: 10 micrograms per ml; 22 hours. The procedure:
Thereafter, designated concentration of testing peptides—10 micrograms per ml—was added in duplicate wells.

In another test the test system is HUVEC. As to the kind of experiment: Endothelial tube formation assay. The conditions noted are these: 10 micrograms per ml; 20 hours. The class given is cell-based, human. The text has this:
Positive control was vehicle only. […] Raw data were expressed as average tubule lenghs in pixels±standard deviation.

Test [4] has as its system A549 cells. Briefly: Apoptosis prevention assay (C2 ceramide, Annexin-5). The class given is cell-based, human. The conditions noted are these: 10 micrograms per ml, 30 min pretreatment, then C2 ceramide.
Method: Human A549 cells (carcinomic human alveolar basal epithelial cells) were utilized in the experiments employing the Annexin-5 apoptosis assay. […] A549 cells were pretreated for 30 min with test peptides—10 micrograms per ml—followed by the exposure to C2 ceramide.
The subject of a further test is HIV-1IIIB. As to the kind of experiment: HIV-1 antiviral assay in CEM-SS cells (MTS readout). To be noted: HIV-1IIIB in CEM-SS cells.

`Nc1nc(O)c2ncn(COC(CO)CO)c2n1` [Ganciclovir, reference compound]: the “antiviral activity of positive control compound” value with HCMV strain AD169 (HCMV in MRC-5 cells) is recorded as “expected levels of antiviral activity”.
Take “His-Ser-Asp-Gly-Ile-Phe-Thr-Asp-Ser-Tyr-Ser-Arg-Tyr-Arg-Lys-Gln-Met-Ala-Val-Lys-Lys-Tyr-Leu-Ala-Ala-Val-Leu-NH2 (HSDGIFTDSYSRYRKQMAVKKYLAAVL-NH2) [Peptide 2]”: the “induction of apoptosis on human lung cells” value in the test on A549 cells [1] is given as 3.6%. Besides, in the test with HCMV strain AD169, the “inhibition of HCMV plaque formation as compared to the virus control experiment” value is listed as “did not inhibit”. Moreover, in the test on murine spleen cells, the “production of IL-2 (change)” value was “did not significantly change”, the “production of IFN-gamma (decreased by %)” value is listed as 62.9%, the “production of IL-4 (decreased by %)” value is “did not significantly change” and the “production of IL-5 (decreased by %)” value was 43.3%. Further, the “production of TNF-alpha (induced by %)” value in the test on murine spleen cells is given as “did not significantly change”. The “inhibition of HBV replication as compared to the virus control infection” value in test [2] was 39.1%. Moreover, in test [3], the “inhibition of the migration of human endothelial cells” value is reported as “did not inhibit”. Also, in the test with HUVEC, the “inhibition of the tube formation of human endothelial cells” value is given as “did not inhibit”. Further, the “prevention of apoptosis on ceramide-induced apoptosis” value in the test with A549 cells [4] (protection) amounted to 13.7%.
`Cc1cn([C@H]2C[C@H](N=[N+]=[N-])[C@@H](CO)O2)c(=O)[nH]c1=O` [AZT]: the “antiviral activity of positive control compounds” value with HIV-1IIIB is “expected levels of antiviral activity”.
For the compound “His-Pro-Leu-Gln-Lys-Thr-Tyr-OH (HPLQKTY-OH) [Peptide 1]”, the “induction of apoptosis on human lung cells” value in the test with A549 cells [1] is recorded as “did not show any significant induction”. Moreover, the “inhibition of HCMV plaque formation as compared to the virus control experiment” value with HCMV strain AD169 amounted to 0.3%. Further, in the test with murine spleen cells, the “production of IL-2 (change)” value is “did not significantly change”, the “production of IFN-gamma (decreased by %)” value was “did not significantly change”, the “production of IL-4 (decreased by %)” value is 30.9% and the “production of IL-5 (decreased by %)” value was “did not significantly change”. The “production of TNF-alpha (induced by %)” value in the test on murine spleen cells was determined as 31.3%. Moreover, the “inhibition of HBV replication as compared to the virus control infection” value in test [2] was found to be 25.3%. Moreover, the “inhibition of the migration of human endothelial cells” value in test [3] came out at 4%. For the same compound, the “inhibition of the tube formation of human endothelial cells” value in the test with HUVEC came to 6%. For the same compound, the “induction of apoptosis on ceramide-induced apoptosis” value in the test on A549 cells [4] (increase of apoptosis) worked out at 9.7%.
Consider `CC(C)(C)NC(=O)[C@@H]1CN(Cc2cccnc2)CCN1C[C@@H](O)C[C@@H](Cc1ccccc1)C(=O)N[C@H]1c2ccccc2C[C@H]1O` [indinavir], for which, in the test on HIV-1IIIB, the “antiviral activity of positive control compounds” value is on record as “expected levels of antiviral activity”.
